The numbers were not newly measured in patent US20260216122A1, “PHARMACEUTICAL COMPOSITION COMPRISING ENAVOGLIFLOZIN AND METFORMIN” (DAEWOONG PHARMACEUTICAL CO., LTD., priority 2022, published 2026), which cites them from elsewhere.

The structures appear in SMILES notation. Where two headings read alike, the source gives them in different places.

For the compound `OC[C@H]1O[C@@H](c2cc(Cc3ccc(C4CC4)cc3)c(Cl)c3c2CCO3)[C@H](O)[C@@H](O)[C@@H]1O` [enavogliflozin, (2S,3R,4R,5S,6R)-2-(7-chloro-6-(4-cyclopropylbenzyl)-2,3-dihydrobenzofuran-4-yl)-6-(hydroxymethyl)tetrahydro-2H-pyran-3,4,5-triol], for the setting “enavogliflozin”, the Tmax result was “approximately 1 hour”.
As for `CN(C)C(=N)N=C(N)N` [Metformin], the Tmax entry by setting is: (metformin, administered after a meal) “approximately 6 hours”; (metformin, administered before a meal) “approximately 4 hours”.
